{"source": "patent US20120328521A1", "about": "“FORMULATIONS SUITABLE FOR PET IMAGING WITH HYDROPHOBIC PET AGENTS” (PIRAMAL IMAGING SA, priority 2009, published 2012)", "assay_type_in_all_cases": "physicochemical", "key": {"[1]": {"experiment": "Particulate matter testing of formulation I (HIAC Royco Liquid Particle Counting System)", "conditions": "up to 8 hours", "description": "Solubility of the active was tested by visual inspection using an illuminated magnifying glass with black background and confirmed by experiments assessing particulate matter using the HIAC Royco, Liquid Particle Counting System, Model 9703.\nThe formation of particles was assessed using the HIAC Royco, Liquid Particle Counting System, Model 9703 and in addition to the channels normally inspected (10 μm and 25 μm), also the smaller channels (2 μm and 5 μm) were used to assess the stability of the formulation. The formulation I was sterile filtered and inspected at timepoint 1 hour and 8 hours.\nTable 2 indicates the results of particulate matter testing up to 8 hours of 3 individually manufactured batches\nSince the handling of the solutions was made under normal laboratory conditions, the particle background measured in the sterile filtered solutions have an exogenous nature."}, "[2]": {"experiment": "Stability of formulation comprising HCl salt of compound 1 for 8 hours at room temperature (HPLC assay)", "conditions": "for assay of HCl salt of compound 1, batch 01 / assay of HCl salt of compound 1, batch 02 / assay of HCl salt of compound 1, batch 03 / assay of HCl salt of compound 1, mean [%]: formulation I, 5.51 μg/mL; for assay of HCl salt of compound 1, mean [%]: mean of 3 batches", "description": "Since solutions of stilbenes are light sensitive, the solutions were stored under light protection.\nA solution was prepared containing 5.51 μg/mL HCl salt of compound 1 as in formulation I. Assay was analysed after different timepoints. Three individual batches were prepared and analysed for assay and particulate matter. From these solutions samples were taken and analysed by HPLC.\nTable 1 indicates the results of stability testing up to 8 hours of 3 individually manufactured batches."}, "[3]": {"experiment": "Adsorption of compound 1 onto sterile filters (assay in filtrate of formulation II)", "description": "Formulation II comprising compound 1 was prepared as indicated above and filtered using selected sterile filters. Adsorption of compound 1 was determined before and after filtration using different filter types. Table 3 indicates the results of adsorption experiments using different filters.\nOnly hydrophobic filters show a low amount of compound 1 adsorbed onto the filter material."}}}
{"smiles": "CNc1ccc(/C=C/c2ccc(OCCOCCOCCF)cc2)cc1", "note": "[Compound 1]", "values": [{"measurement": "dissolution state / precipitation in formulation", "setting": "[1]", "value": "remains dissolved and is not precipitating"}, {"measurement": "chemical stability in the formulation", "setting": "[2]; HCl salt, 8 hours", "value": "chemically stable"}, {"measurement": "assay of HCl salt of compound 1, batch 01", "setting": "[2]; time 1 hour", "value": 100.2, "unit": "%"}, {"measurement": "assay of HCl salt of compound 1, batch 02", "setting": "[2]; time 1 hour", "value": 98.3, "unit": "%"}, {"measurement": "assay of HCl salt of compound 1, batch 03", "setting": "[2]; time 1 hour", "value": 96.9, "unit": "%"}, {"measurement": "assay of HCl salt of compound 1, mean [%]", "setting": "[2]; time 1 hour", "value": 98.5, "unit": "%"}, {"measurement": "assay of HCl salt of compound 1, batch 01", "setting": "[2]; time 2 hours", "value": 101.2, "unit": "%"}, {"measurement": "assay of HCl salt of compound 1, batch 02", "setting": "[2]; time 2 hours", "value": 98.4, "unit": "%"}, {"measurement": "assay of HCl salt of compound 1, batch 03", "setting": "[2]; time 2 hours", "value": 97.17, "unit": "%"}, {"measurement": "assay of HCl salt of compound 1, mean [%]", "setting": "[2]; time 2 hours", "value": 98.9, "unit": "%"}, {"measurement": "assay of HCl salt of compound 1, batch 01", "setting": "[2]; time 3 hours", "value": 101.1, "unit": "%"}, {"measurement": "assay of HCl salt of compound 1, batch 02", "setting": "[2]; time 3 hours", "value": 98.7, "unit": "%"}, {"measurement": "assay of HCl salt of compound 1, batch 03", "setting": "[2]; time 3 hours", "value": 96.2, "unit": "%"}, {"measurement": "assay of HCl salt of compound 1, mean [%]", "setting": "[2]; time 3 hours", "value": 98.7, "unit": "%"}, {"measurement": "assay of HCl salt of compound 1, batch 01", "setting": "[2]; time 4 hours", "value": 101.2, "unit": "%"}, {"measurement": "assay of HCl salt of compound 1, batch 02", "setting": "[2]; time 4 hours", "value": 98, "unit": "%"}, {"measurement": "assay of HCl salt of compound 1, batch 03", "setting": "[2]; time 4 hours", "value": 97.4, "unit": "%"}, {"measurement": "assay of HCl salt of compound 1, mean [%]", "setting": "[2]; time 4 hours", "value": 98.9, "unit": "%"}, {"measurement": "assay of HCl salt of compound 1, batch 01", "setting": "[2]; time 5 hours", "value": 101.5, "unit": "%"}, {"measurement": "assay of HCl salt of compound 1, batch 02", "setting": "[2]; time 5 hours", "value": 98.6, "unit": "%"}, {"measurement": "assay of HCl salt of compound 1, batch 03", "setting": "[2]; time 5 hours", "value": 96.6, "unit": "%"}, {"measurement": "assay of HCl salt of compound 1, mean [%]", "setting": "[2]; time 5 hours", "value": 98.9, "unit": "%"}, {"measurement": "assay of HCl salt of compound 1, batch 01", "setting": "[2]; time 6 hours", "value": 101.5, "unit": "%"}, {"measurement": "assay of HCl salt of compound 1, batch 02", "setting": "[2]; time 6 hours", "value": 98.7, "unit": "%"}, {"measurement": "assay of HCl salt of compound 1, batch 03", "setting": "[2]; time 6 hours", "value": 95.7, "unit": "%"}, {"measurement": "assay of HCl salt of compound 1, mean [%]", "setting": "[2]; time 6 hours", "value": 98.6, "unit": "%"}, {"measurement": "assay of HCl salt of compound 1, batch 01", "setting": "[2]; time 7 hours", "value": 101.7, "unit": "%"}, {"measurement": "assay of HCl salt of compound 1, batch 02", "setting": "[2]; time 7 hours", "value": 98.5, "unit": "%"}, {"measurement": "assay of HCl salt of compound 1, batch 03", "setting": "[2]; time 7 hours", "value": 96.5, "unit": "%"}, {"measurement": "assay of HCl salt of compound 1, mean [%]", "setting": "[2]; time 7 hours", "value": 98.9, "unit": "%"}, {"measurement": "assay of HCl salt of compound 1, batch 01", "setting": "[2]; time 8 hours", "value": 102.7, "unit": "%"}, {"measurement": "assay of HCl salt of compound 1, batch 02", "setting": "[2]; time 8 hours", "value": 98.7, "unit": "%"}, {"measurement": "assay of HCl salt of compound 1, batch 03", "setting": "[2]; time 8 hours", "value": 96.5, "unit": "%"}, {"measurement": "assay of HCl salt of compound 1, mean [%]", "setting": "[2]; time 8 hours", "value": 99.3, "unit": "%"}, {"measurement": "Analysis of assay in filtrate", "setting": "[3]; Millipore Millex 0.2 μm, Order No SLGV013SL, PVDF, hydrophobic material rendered hydrophilic by surface modification", "value": 97.3, "unit": "%"}, {"measurement": "Analysis of assay in filtrate", "setting": "[3]; Sartorius Minisart 0.2 μm (blue), Order No 16534, Celluloseacetat, hydrophylic", "value": 53, "unit": "%"}, {"measurement": "Analysis of assay in filtrate", "setting": "[3]; Sartorius Minisart HY 0.2 μm, Order No 16596, PTFE, hydrophobic", "value": 96.5, "unit": "%"}, {"measurement": "Analysis of assay in filtrate", "setting": "[3]; Sartorius Minisart High Flow 0.2 μm, Order No 16532, PES, hydrophobic", "value": 75, "unit": "%"}, {"measurement": "amount adsorbed onto the filter material", "setting": "[3]; only hydrophobic filters", "value": "low amount"}]}
